ChEMBL document CHEMBL1136465, “Phenolics with PPAR-gamma ligand-binding activity obtained from licorice (Glycyrrhiza uralensis roots) and ameliorative effects of glycyrin on genetically diabetic KK-A(y) mice” (2003)

Experiments:
Assay type in all cases: functional
Mus musculus [1] = species: Mus musculus; assay: Blood glucose level of the diabetic KK-Ay mice on day 0 was measured
Mus musculus [2] = species: Mus musculus; assay: Blood glucose level of the diabetic KK-Ay mice on day 4 was measured
Mus musculus [3] = species: Mus musculus; assay: Body weight of the fasted diabetic KK-Ay mice on day 10 was measured
Mus musculus [4] = species: Mus musculus; assay: Body weight of the non-fasted diabetic KK-Ay mice on day 0 was measured
Mus musculus [5] = species: Mus musculus; assay: Body weight of the non-fasted diabetic KK-Ay mice on day 4 was measured
Mus musculus [6] = species: Mus musculus; assay: Body weight of the non-fasted diabetic KK-Ay mice on day 7 was measured
Mus musculus [7] = species: Mus musculus; assay: Average food intake of the diabetic KK-Ay mice was measured from total intake amount/days/number of mice
Mus musculus [8] = species: Mus musculus; assay: Average sample intake of the diabetic KK-Ay mice was measured as average food intake/average body weight of mice

COc1cc2oc(=O)c(-c3ccc(O)cc3O)cc2c(OC)c1CC=C(C)C [GLYCYRIN]
Blood glucose (Mus musculus [1]): 474 mg/dL | Blood glucose (Mus musculus [2]): 278 mg/dL | Body weight (Mus musculus [3]): 48.1 g | Body weight (Mus musculus [4]): 54.1 g | Body weight (Mus musculus [5]): 50.4 g | Body weight (Mus musculus [6]): 51.9 g | Average food intake (Mus musculus [7]): 5.34 g mouse-1 day-1 | Average sample intake (Mus musculus [8]): 102 mg/kg/day

COc1c(CC=C(C)C)c(O)cc2oc(=O)c3c4ccc(O)cc4oc3c12 [GLYCYROL]
Blood glucose (Mus musculus [1]): 427 mg/dL | Blood glucose (Mus musculus [2]): 421 mg/dL | Body weight (Mus musculus [3]): 46.8 g | Body weight (Mus musculus [4]): 52.6 g | Body weight (Mus musculus [5]): 49.1 g | Body weight (Mus musculus [6]): 50.3 g | Average food intake (Mus musculus [7]): 5.47 g mouse-1 day-1 | Average sample intake (Mus musculus [8]): 108 mg/kg/day

CCc1ccc(CCOc2ccc(CC3SC(=O)NC3=O)cc2)nc1 (centres undefined) [PIOGLITAZONE]
Blood glucose (Mus musculus [1]): 486 mg/dL | Blood glucose (Mus musculus [2]): 191 mg/dL | Body weight (Mus musculus [3]): 52.5 g | Body weight (Mus musculus [4]): 55.1 g | Body weight (Mus musculus [5]): 53.6 g | Body weight (Mus musculus [6]): 55.8 g | Average food intake (Mus musculus [7]): 6.34 g mouse-1 day-1 | Average sample intake (Mus musculus [8]): 23 mg/kg/day
